Data published in patent US8895571B2, “Isoindolinone and pyrrolopyridinone derivatives as Akt inhibitors” (Incyte Corporation, priority 2011, dated 2014).

Experiments:
Full length Akt1 = target: T1, Full length Akt1 (Homo sapiens, UniProt P31749); assay: In vitro Akt kinase enzymatic assay (HTRF), Akt1; format: biochemical; conditions: 0.4 nM Akt1, substrate solution with 5 mM ATP, 25° C. 1 hr
T1 construct: Full length Akt1 (cat #P2999); purchased PerkinElmer P2999
Protocol: (§1) Compounds herein were tested for inhibitory activity of Akt targets according to the following in vitro assay. Full length Akt1 (cat #P2999), Akt2 (cat #PV3184), Akt3 (cat #PV3185), peptide substrate, Ulight-Crosstide (cat #TRF0106-M), Ultra-Europium anti-phospho-Crosstide (cat #TRF-0202-M), and 10×LANCE detection buffer (cat #CR97-100) were purchased from PerkinElmer. In general, assay buffer conditions were chosen based on obtaining optimal enzymatic and linear activities. The assay buffer contains 50 mM HEPES, 10 mM MgCl2, 5 mM DTT, 0.005% Tween20 at pH 7.8. Compound stock (0.001 mM) was prepared in DMSO. The compound plate was prepared by 3-fold and 11-point serial dilutions. 0.5 μL of the compound in DMSO was transferred from the compound plate to the assay plate. Enzyme solution (0.4 nM of Akt1, 0.6 nM of Akt2 or 0.6 nM of Akt3) was prepared in the assay buffer. Note that the enzyme concentration given is based on the given stock concentration reported by the vendor. 0.1 μM substrate solution was prepared in the assay buffer with addition of 5 mM ATP. 10 μL of the enzyme solution was added to the assay plate and then 10 μL of substrate solution was added to the assay plate. The plate was protected from light and the reaction was incubated at 25° C. for 1 hr. The reaction was stopped by adding 10 μL of a solution containing 30 mM EDTA, and 3 nM Ultra Europium anti-phospho Crosstide in 1× detection buffer. The plate was incubated for 15-30 min at room temperature and HTRF (homogenous time resolved fluorescence) was measured on a plate reader. Percentage of inhibition was calculated for each concentration and IC50 value was generated from curve fitting. See Table 8 for data related to compounds of the examples.

Full length Akt3 = target: T2, Full length Akt3 (Homo sapiens, UniProt Q9Y243); assay: In vitro Akt kinase enzymatic assay (HTRF), Akt3; format: biochemical; conditions: 0.6 nM Akt3, substrate solution with 5 mM ATP, 25° C. 1 hr
T2 construct: Full length Akt1 (cat #P2999), Akt2 (cat #PV3184), Akt3 (cat #PV3185); purchased PerkinElmer PV3185
T2 sequence (Q9Y243 whole entry): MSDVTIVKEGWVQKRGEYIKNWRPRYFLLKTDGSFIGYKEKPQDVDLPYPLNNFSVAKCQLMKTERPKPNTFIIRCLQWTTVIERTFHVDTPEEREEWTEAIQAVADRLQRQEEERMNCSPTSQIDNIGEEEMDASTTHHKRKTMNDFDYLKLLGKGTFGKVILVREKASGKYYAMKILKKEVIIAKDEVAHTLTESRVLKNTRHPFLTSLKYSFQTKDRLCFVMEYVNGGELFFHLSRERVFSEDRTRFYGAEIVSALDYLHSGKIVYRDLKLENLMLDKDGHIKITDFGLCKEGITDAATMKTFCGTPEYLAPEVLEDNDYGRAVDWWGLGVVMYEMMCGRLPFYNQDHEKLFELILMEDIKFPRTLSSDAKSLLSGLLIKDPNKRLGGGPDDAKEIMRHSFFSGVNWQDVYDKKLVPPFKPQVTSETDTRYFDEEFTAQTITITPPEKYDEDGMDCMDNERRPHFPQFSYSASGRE
Protocol: as §1

[1] = tested on: LNCaP cells (human prostate tumor cell line); assay: Akt LNCaP proliferation assay (MTS); format: cell-based; conditions: 2% fetal bovine serum, 48 hours, class symbols
Protocol: LNCaP cells (human prostate tumor cell line) were plated in 96 well plates (COSTAR, Corning, N.Y.) in 50 μL at 10,000 cells/well in RPMI (Media Tech, Manassas, Va.), 2% fetal bovine serum (Hyclone/Thermo, Logan, Utah) and incubated overnight at 37° C., 5% CO2. […] of compound solution were added at final concentrations of 1000 nM to 0.5 nM in 3 fold dilutions for IC50 determination and plates further incubated for 48 hours. 100 μL of Cell Titer 96® Aqueous reagent, from an MTS colorimetric method for determining the number of viable cells in proliferation (Cell titer 96, Promega, Madison, Wis.) was added for 2 hours at 37° C., 5% CO2. Each plate was mixed well and read on a SpectroMax M5 automated plate reader (Molecular Devices, Sunnyvale Calif.). The ability of the compound to inhibit proliferation was reported as the inhibitor concentration required for 50% inhibition (IC50 values) of total cell proliferation. See Table 8 for data related to compounds of the examples.

Full length PKA = target: T3, Full length PKA (Homo sapiens, UniProt P17612); assay: PKA in vitro enzymatic assay (HTRF); format: biochemical; conditions: 0.035 nM enzyme solution, substrate solution with 5 mM ATP, 25° C. 1 hr
T3 construct: Full length PKA (cat #P2912); purchased Invitrogen P2912
Protocol: Full length PKA (cat #P2912), peptide substrate, fluorescein CREBtide peptide (cat #PV3508), Tb-Crebtide p-S133 Ab (cat #PV3566), and Lanthascreen TR-FRET Dilution Buffer stored (part # PV3574) were purchased from Invitrogen. In general, assay buffer conditions were chosen based on obtaining optimal and linear enzymatic activities. The assay buffer contains 50 mM HEPES, 10 mM MgCl2, 5 mM DTT, 0.005% Tween20 at pH 7.8. Compound stock (0.001 mM) was prepared in DMSO. The compound plate was prepared by 3-fold and 11-point serial dilutions. 0.5 μL of the compound in DMSO was transferred from the compound plate to the assay plate. 0.035 nM enzyme solution was prepared in the assay buffer. Note that the enzyme concentration given is based on the given stock concentration reported by the vendor. 0.1 μM substrate solution was prepared in the assay buffer with addition of 5 mM ATP. 10 μL of the enzyme solution was added to the assay plate and then 10 μL of substrate solution was added to the assay plate. The plate was protected from light and the reaction was incubated at 25° C. for 1 hr. The reaction was stopped by adding 10 μL of a solution containing 30 mM EDTA, and 1.5 nM Tb-Crebtide p-S133 Ab in 1× detection buffer. The plate was incubated for 15-30 min at room temperature and HTRF (homogenous time resolved fluorescence) was measured on a plate reader. Percentage of inhibition was calculated for each concentration and IC50 value was generated from curve fitting. See Table 8 for data related to compounds of the examples.

Full length Akt2 = target: T4, Full length Akt2 (Homo sapiens, UniProt P31751); assay: In vitro Akt kinase enzymatic assay (HTRF), Akt2; format: biochemical; conditions: 0.6 nM Akt2, substrate solution with 5 mM ATP, 25° C. 1 hr
T4 construct: Full length Akt1 (cat #P2999), Akt2 (cat #PV3184); purchased PerkinElmer PV3184
T4 sequence (P31751 whole entry): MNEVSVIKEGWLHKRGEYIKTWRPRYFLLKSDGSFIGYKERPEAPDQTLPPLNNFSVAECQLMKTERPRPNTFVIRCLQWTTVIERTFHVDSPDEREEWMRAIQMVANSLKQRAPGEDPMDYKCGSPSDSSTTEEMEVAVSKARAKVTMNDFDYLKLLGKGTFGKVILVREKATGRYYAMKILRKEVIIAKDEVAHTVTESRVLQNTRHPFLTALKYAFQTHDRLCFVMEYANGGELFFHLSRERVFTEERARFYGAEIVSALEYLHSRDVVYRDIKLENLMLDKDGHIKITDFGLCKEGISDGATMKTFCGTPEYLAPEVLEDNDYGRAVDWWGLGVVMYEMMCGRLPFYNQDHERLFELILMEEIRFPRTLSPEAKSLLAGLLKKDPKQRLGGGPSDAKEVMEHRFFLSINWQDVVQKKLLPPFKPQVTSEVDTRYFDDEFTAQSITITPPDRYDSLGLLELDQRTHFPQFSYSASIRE
Protocol: as §1

T1 sequence (P31749 whole entry): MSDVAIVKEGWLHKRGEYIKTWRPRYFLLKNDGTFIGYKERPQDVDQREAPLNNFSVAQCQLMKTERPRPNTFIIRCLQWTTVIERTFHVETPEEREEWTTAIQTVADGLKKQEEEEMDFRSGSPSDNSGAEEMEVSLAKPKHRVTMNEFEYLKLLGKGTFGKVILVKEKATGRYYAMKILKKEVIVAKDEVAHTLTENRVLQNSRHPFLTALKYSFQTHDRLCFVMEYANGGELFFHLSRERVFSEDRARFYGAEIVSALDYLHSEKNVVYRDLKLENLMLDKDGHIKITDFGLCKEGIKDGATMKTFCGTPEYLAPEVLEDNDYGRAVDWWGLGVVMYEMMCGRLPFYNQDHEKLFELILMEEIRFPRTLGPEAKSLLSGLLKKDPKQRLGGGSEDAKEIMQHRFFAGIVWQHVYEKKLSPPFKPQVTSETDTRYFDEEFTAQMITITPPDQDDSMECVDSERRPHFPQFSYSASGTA

| IC50 (Full length Akt1) [µM] | IC50 (Full length Akt3) [µM] | IC50 [1] [µM] | IC50 (Full length PKA) [µM] | IC50 (Full length Akt2) [µM] | SMILES |
| --- | --- | --- | --- | --- | --- |
| < 0.5 | < 0.5 | 0.5 to 5 | > 5 | 0.5 to 5 | CSCc1cnn(C)c1-c1ccc2c(c1)CN([C@H](CN)Cc1cc(F)cc(F)c1)C2=O [Example 49, 2-[(1S)-2-amino-1-(3,5-difluorobenzyl)ethyl]-5-[4-(methylthio)methyl-1-methyl-1H-pyrazol-5-yl]isoindolin-1-one] |
| < 0.5 | 0.5 to 5 | < 0.5 | 0.5 to 5 | < 0.5 | Cn1nccc1-c1ccc2c(c1)CN(C(CN)c1cccc(F)c1)C2=O (stereo not shown) [Example 117, 2-[2-amino-1-(3-fluorophenyl)ethyl]-5-(1-methyl-1H-pyrazol-5-yl)isoindolin-1-one] |
| 0.5 to 5 | < 0.5 |  | > 5 | 0.5 to 5 | Cn1ncc(-c2ccsc2)c1-c1ccc2c(c1)CN([C@H](CN)Cc1cccc(F)c1)C2=O [Example 16, 2-[(1S)-2-amino-1-(3-fluorobenzyl)ethyl]-5-[1-methyl-4-(3-thienyl)-1H-pyrazol-5-yl]isoindolin-1-one] |
| < 0.5 | 0.5 to 5 |  | > 5 | > 5 | CCN(CC)C[C@H](Cc1cccc(F)c1)N1Cc2cc(-c3c(Cl)cnn3C)ccc2C1=O [Example 39, 5-(4-chloro-1-methyl-1H-pyrazol-5-yl)-2-[(1S)-2-(diethylamino)-1-(3-fluorobenzyl)ethyl]isoindolin-1-one] |
| < 0.5 | 0.5 to 5 |  | > 5 | 0.5 to 5 | Cn1ncc(Cl)c1-c1ccc2c(c1)CN([C@H](CN)Cc1ccc(C#N)cc1)C2=O [Example 63, 4-{(2S)-3-amino-2-[5-(4-chloro-1-methyl-1H-pyrazol-5-yl)-1-oxo-1,3-dihydro-2H-isoindol-2-yl]propyl}benzonitrile] |
| > 5 | > 5 |  | > 5 | > 5 | COc1ncccc1-c1cnn(C)c1-c1ccc2c(c1)CN([C@H](CN)Cc1cccc(F)c1)C2=O [Example 27, 2-[(1S)-2-amino-1-(3-fluorobenzyl)ethyl]-5-[4-(2-methoxypyridin-3-yl)-1-methyl-1H-pyrazol-5-yl]isoindolin-1-one] |
| > 5 | 0.5 to 5 |  | > 5 | > 5 | Cn1ncc(-c2ccncc2)c1-c1ccc2c(c1)CN([C@H](CN)Cc1cccc(F)c1)C2=O [Example 18, 2-[(1S)-2-amino-1-(3-fluorobenzyl)ethyl]-5-(1-methyl-4-pyridin-4-yl-1H-pyrazol-5-yl)isoindolin-1-one] |
| > 5 | > 5 |  | > 5 | > 5 | Cn1ncc(-c2cccnc2F)c1-c1ccc2c(c1)CN([C@H](CN)Cc1cccc(F)c1)C2=O [Example 24, 2-[(1S)-2-amino-1-(3-fluorobenzyl)ethyl]-5-[4-(2-fluoropyridin-3-yl)-1-methyl-1H-pyrazol-5-yl]isoindolin-1-one] |
| < 0.5 | > 5 |  | > 5 | 0.5 to 5 | Cn1nccc1-c1ccc2c(c1)CN(C(CN)c1ccc(F)cc1)C2=O (stereo not shown) [Example 118, 2-[2-amino-1-(4-fluorophenyl)ethyl]-5-(1-methyl-1H-pyrazol-5-yl)isoindolin-1-one] |
| 0.5 to 5 | > 5 |  | > 5 | > 5 | CN(C)C[C@H](Cc1cccc(F)c1)N1Cc2cc(-c3c(Cl)cnn3C)ccc2C1=O [Example 38, 5-(4-chloro-1-methyl-1H-pyrazol-5-yl)-2-[(1S)-2-(dimethylamino)-1-(3-fluorobenzyl)ethyl]isoindolin-1-one] |
| < 0.5 | 0.5 to 5 |  | 0.5 to 5 | 0.5 to 5 | Cn1ncc(Cl)c1-c1ccc2c(c1)CN(C(CN)c1cccc(F)c1)C2=O (stereo not shown) [Example 123, 2-[2-amino-1-(3-fluorophenyl)ethyl]-5-(4-chloro-1-methyl-1H-pyrazol-5-yl)isoindolin-1-one] |
| 0.5 to 5 | > 5 |  | > 5 | > 5 | COc1ccc(-c2cnn(C)c2-c2ccc3c(c2)CN([C@H](CN)Cc2cccc(F)c2)C3=O)cn1 [Example 28, 2-[(1S)-2-amino-1-(3-fluorobenzyl)ethyl]-5-[4-(6-methoxypyridin-3-yl)-1-methyl-1H-pyrazol-5-yl]isoindolin-1-one] |
| > 5 | > 5 |  | > 5 | > 5 | Cn1ncc(-c2cccc3ccccc23)c1-c1ccc2c(c1)CN([C@H](CN)Cc1cccc(F)c1)C2=O [Example 22, 2-[(1S)-2-amino-1-(3-fluorobenzyl)ethyl]-5-[1-methyl-4-(1-naphthyl)-1H-pyrazol-5-yl]isoindolin-1-one] |
| > 5 | > 5 |  | > 5 | > 5 | Cn1ncc(-c2cncnc2)c1-c1ccc2c(c1)CN([C@H](CN)Cc1cccc(F)c1)C2=O [Example 23, 2-[(1S)-2-amino-1-(3-fluorobenzyl)ethyl]-5-(1-methyl-4-pyrimidin-5-yl-1H-pyrazol-5-yl)isoindolin-1-one] |
| 0.5 to 5 | 0.5 to 5 |  | > 5 | 0.5 to 5 | Cn1ncc(Cl)c1-c1ccc2c(n1)CN([C@H](CN)Cc1ccccc1)C2=O [Example 112, 6-[(1S)-2-amino-1-benzylethyl]-2-(4-chloro-1-methyl-1H-pyrazol-5-yl)-6,7-dihydro-5H-pyrrolo[3,4-b]pyridin-5-one] |
| < 0.5 | 0.5 to 5 |  | > 5 | 0.5 to 5 | Cn1ncc(Cl)c1-c1ccc2c(c1)CN([C@H](CNC1CCCC1)Cc1cccc(F)c1)C2=O [Example 35, 5-(4-chloro-1-methyl-1H-pyrazol-5-yl)-2-[(1S)-2-(cyclopentylamino)-1-(3-fluorobenzyl)ethyl]isoindolin-1-one] |
| < 0.5 | 0.5 to 5 |  | > 5 | > 5 | Cn1cc(-c2cccc(C[C@@H](CN)N3Cc4cc(-c5c(Cl)cnn5C)ccc4C3=O)c2)cn1 [Example 70, 2-{(1S)-2-amino-1-[3-(1-methyl-1H-pyrazol-4-yl)benzyl]ethyl}-5-(4-chloro-1-methyl-1H-pyrazol-5-yl)isoindolin-1-one] |
